The values below come from patent EP3290412A1, “HIV-1 NUCLEOCAPSID INHIBITORS” (Università degli Studi di Siena, priority 2016, dated 2018).

One data set concerns the target NC(11-55) (Human immunodeficiency virus type 1, UniProt P12493). Description: NC inhibition assay (NC-induced cTAR DNA destabilization, fluorescence). Format: biochemical, HIV-1. The settings on record: for inhibition at 100 µM: single point screening, positive = >25% inhibition at 100µM. The source says:
The NC inhibition assay is based on the nucleic acid chaperone activity of the NC protein. NC destabilizes the secondary structure of cTAR DNA, the complementary sequence of the transactivation response element, which is involved in minus-strand DNA transfer during reverse transcription. In the assay, the cTAR sequence from the HIV-1 Mal strain (Bernacchi et al, J Mol Biol, 2002) is labeled with a dye (Alexa488 fluorophore) and a quencher 4-(4'-dimethylaminophenylazo)benzoic acid (Dabcyl) at its 5' and 3' ends, respectively. In the absence of destabilization, the close proximity of both cTAR ends results in a strong fluorescence quenching of the dye emission by the Dabcyl group. NC(11-55) added to cTAR at a ratio of 10 NC/cTAR melts the bottom of the cTAR stem, which increases the distance between the dye and the quencher and as a result increases the dye fluorescence signal [Shvadchak et al, (2009) Identification by high throughput screening of small compounds inhibiting the nucleic acid destabilization activity of the HIV-1 nucleocapsid protein. Biochimie, 916-923]. NCIs are expected to prevent the NC-induced destabilization of cTAR and thus reverse the NC-induced increase in the fluorescence of the labeled cTAR. The activity of the inhibitor is thus evaluated from the ratio of the fluorescence intensity observed in the presence of NC with the molecule to the one in the absence of the compound.
The doubly labelled cTAR DNA oligonucleotides (55nt) were synthesised and purified by IBA GmbH Nucleic Acids Product Supply (Göttingen, Germany). Extinction coefficient at 260 nm of 5.73 x 10^5 M^-1 cm^-1 was used to determine the concentration of cTAR.
The NC(11-55) peptide (Avilov et al, Antimicrob Agents Chemother, 2012) was synthesized by solid-phase peptide synthesis on a 433A synthesizer (ABI, Foster City, CA) as previously described [De Rocquigny H, (1991) First large scale chemical synthesis of the 72 amino acid HIV-1 nucleocapsid protein NCp7 in an active form. Biochem Biophys Res Commun., 1010-1018]. The peptide was stored lyophilized and was resuspended in water before use. The concentration of peptide was determined by using an extinction coefficient of 5.7 x 10^3 M^-1 cm^-1 at 280 nm. Next, 2.5 molar equivalents of ZnSO4 were added and pH was raised to its final value by adding buffer.
All experiments were performed at 20 °C in 25 mM Tris-HCl (pH 7.5), 30 mM NaCl, and 0.2 mM MgCl2. To evaluate the inhibition activity of compounds on NC-induced cTAR destabilization, cTAR DNA (0.1 µM) was preincubated with 1 µM NC(11-55) (molar ratio NC:cTAR = 10:1) for 15 min at room temperature before addition of compound. For single point screening, all compounds were tested at three final concentrations: 1 µM, 10 µM and 100 µM. For the IC50 determination, inhibition of NC-induced cTAR melting was monitored through addition of increasing concentrations of the selected molecules to the pre-formed NC(11-55)-cTAR complex. After the addition of compound, the mixture was incubated for 15 min at room temperature before the reading. The fluorescence signal was recorded with a plate reader Xenius (SAFAS Monaco) or Fluoromax 3 spectrofluorometer (Horiba Jobin-Yvon), and the excitation and emission wavelengths were 480 and 520 nm, respectively. The spectra were corrected for dilution, buffer fluorescence and screening effect (when it was required). In order to check the occurrence of aggregation, we performed additional reading of absorption with the plate reader Xenius (SAFAS Monaco) or Cary 4000 spectrophotometer (Agilent). […]

Data set [1] has as its system HIV-1 reference strain NL4-3. Description: BiCycle assay (MT-2 then TZM-bl cells). The format is cell-based. The settings on record: Human immunodeficiency virus 1, NL43, TZM-bl, read-out: BiCycle IC50 nM. The procedure: BiCycle Assay is cell based assay allowing the evaluation of the antiviral activity of HIV-1 inhibitors on the whole replication cycle of HIV-1. The assay consists in a first round of infection of the T-cell line MT-2 followed by infection of TZM-bl cells. MT-2 cells were seeded at a concentration of 50,000 cells/well in a 96-well plate and infected with the HIV-1 reference strain NL4-3 in presence of five-fold dilutions of the investigational compounds. After 72 hours, 50 µl of supernatant from each well, containing the virus produced in the first round of infection, were used to infect TZM-bl cells seeded in a 96-plate well at a concentration of 30,000 cells/well. Two days later, cells were lysed adding 40 µl of Glo Lysis Buffer (Promega) to each well for 5 minutes, then 40 µl of Brighy-Glo Luciferase Reagent (Promega) were added to each well for relative luminescence units (RLU) counting using Glo-Max Multi Detection System (Promega). RLU values from each well were elaborated using the GraphPad v5.0 software to calculate the IC50 of each compound.

Data set [2] addresses T1, full length (1-55) HIV-1 NCp7 (Human immunodeficiency virus type 1 group M subtype B, UniProt P12493).
T1 construct: recombinant full length (1-55) HIV-1 NCp7 proteins; made in house
Kind of data set: Electromobility Shift Assay (EMSA), competition for ssDNA binding. To be noted: NCp7 300 nM, M13mp18 ssDNA; positive = >25% inhibition at 100µM. The text has this:
The assay used a recombinant full length (1-55) HIV-1 NCp7 proteins based on the NL4-3 sequence (GenBank accession number AF324493). The protein was expressed and purified as described in [Carteau, S., Gorelick, R. J. & Bushman, F. D. Coupled integration of human immunodeficiency virus type 1 cDNA ends by purified integrase in vitro: stimulation by the viral nucleocapsid protein. Journal of virology 73, 6670-6679 (1999)].
Competition for single-stranded (ss) DNA binding was realized by mixing 1 µL of serial dilutions of NC inhibitors (diluted in DMSO) with 44 µL of NCp7 (300 nM) in a reaction buffer (20 mM Tris-HCl pH 7.4, 2 mM MgCl2, 100 mM NaCl, 1 mM DTT). 5 µL of a 10 ng/µL (4 nM) solution of M13mp18 ssDNA (BayouBiolabs) were then added and the tubes were incubated for 25 minutes at 37 °C. The reaction was terminated by chilling the tubes on ice followed by the addition of 5 µL of a loading buffer (30% glycerol, 0.01% xylene cyanol, 10 mM Tris-HCl pH 7.4). Samples were then resolved on 25 cm-long, 1% (w/v) agarose gels (SeaKem LE Agarose, Lonza) in 0.5x TBE. Gels were run in a Sub-Cell GT cuvette (BioRad) for 18 h at room temperature at 3 V/cm, stained with SybrGold (Molecular Probes) and scanned for fluorescence using a Typhoon 8600 (GE Healthcare). The experiments were performed in triplicate. Competition efficiency was realized by measuring the relative distance in pixels between the unbound ssDNA control, the NCp7-bound ssDNA control and the bound ssDNA for each points of the titration with the ImageQuant software. The IC50 was estimated as the NC inhibitors concentrations for which the bound ssDNA migrated at 50% of the distance separating the bound from the unbound ssDNA.

In data set [3] the test system is HIV-1 reference strain NL4-3. Kind of data set: MonoCycle assay (TZM-bl cells). The format is cell-based. The settings on record: Human immunodeficiency virus 1, NL43, TZM-bl, 48 h, read-out: Mono Cycle IC50 nM. The procedure:
MonoCycle assay is a cell based assay allowing the evaluation of antiviral activity of HIV-1 inhibitors targeting the early steps of HIV-1 life cycle such as entry, uncoating of viral particles, reverse transcription and integration. The assay consists in the infection of TZM-bl cells (20,000/well) with the HIV-1 reference strain NL4-3 in presence of serial five-fold dilutions of the investigational inhibitors. After 48 hours, cells were lysed adding 40 µl of Glo Lysis Buffer (Promega) to each well for 5 minutes, then 40 µl of Brighy-Glo Luciferase Reagent (Promega) were added to each well for relative luminescence units (RLU) counting using Glo-Max Multi Detection System (Promega). RLU values from each well were elaborated using the GraphPad v5.0 software to calculate the IC50 of each compound.

Another data set deals with HeLa cells. Kind of data set: HeLa Proliferation assay (CellTiter Glo). Format: cell-based. To be noted: 72 hours. As to the method:
HeLa cells (ATCC® CCL2™) in DMEM (Dulbecco Modified Eagle's Medium) without phenol red, Thermo, 11880, USA + 10% FBS + 1X PenStrep + 1X Gln or HUVEC cells (ATCC® CRL1730™) in EBM-2 (Endothelial Growth Basal Medium, Lonza, CC3156) + EGM-2 SingleQuotsTMSupplements and Growth Factors (Lonza, CC4176) + 1X Penicyllin-Streptomycin (PenStrep, ThermoFisher) + 1X Glutamine, are plated in a 384 well plate (Thermo, 4334-11, USA) to a density of 2000 cells per well and let recover for four hours at 37 °C, 5% CO2 in a humidified atmosphere. After the recovery, compounds are transferred to assay plates as per compound preparation method. Assay plates are then incubated at 37 °C, 5% CO2 in a humidified atmosphere for 72 hours. Cell viability is measured by the CellTiter Glo (Promega, G8080, USA) as per manufacturer instruction.

Data set [4] concerns Peripheral blood mononuclear cells (PBMC). The format is cell-based. To be noted: human, 7 days. As to the method: Peripheral blood mononuclear cells (PBMC) obtained from healthy donors by separation over Ficoll-Hypaque (GEHealthear-Cat.# GEH17-1440-02) were suspended at 2x10^6 cells/mL in RPMI 1640 (Biowest-Cat.#L0501-500) supplemented with 10% of heat-inactivated sterile fetal bovine serum (Gibco-Cat.#10270-106), 2 mmol/l L-glutamine (Biowest-Cat.#X0550-100), 50 U/mL Penicillin-50 µg/mL Streptomycin (Biowest-Cat.#L0022-100), referred to as complete medium (CM). PBMC were supplemented with 5 µg/mL of phytohaemagglutinin (Sigma Aldr-Cat.#L1668) and cultured in 75 cm^2 flasks (Sarsted-Cat.#833.911.002) for 2 days at 37 °C in a humidified atmosphere with 5% CO2.
PBMC were then washed in CM, counted by trypan blue exclusion (Gibco-Cat. #15250-061), centrifuged and suspended in fresh CM supplemented with 20 IU/mL recombinant human IL-2 (Miltenyi Biotec-Cat.#130-097-748) and seeded in a 96-well-tissue culture plate (Sarsted-Ca#831.837) at the density of 5x10^5 cells/mL (or 1x10^5 cells in 200 µL final CM volume per well). Cells were left untreated (negative control) or treated with different concentrations of the compounds.
After 7 days of incubation cytotoxicity was determined using Promega's CellTiter 96(R) AQueous One Solution Cell Proliferation Assay (MTS assay) (Promega-Cat.#G3581) according to the manufacturer's instuctions. This is a colorimetric method for determining the number of viable cells in proliferation or cytotoxicity assays. The MTS tetrazolium compound is bioreduced by cells into a colored formazan product that is soluble in tissue culture medium. This conversion is presumably accomplished by NADPH or NADH produced by dehydrogenase enzymes in metabolically active cells.
Briefly, MTS solution was thawed at room temperature, or in a water bath at 37 °C and 40 µL of MTS solution was pipeted into each well of the 96-well assay plate containing the samples in 200 µL of culture medium and incubated at 37 °C, 5% CO2 for 4 hours. The optical density was read at 490 nm using a 96-well plate reader (Tecan Infinite F50) and TD50 (toxic dose 50%, dose killing 50% of the cells compared to untreated control) value was calculated by interpolation of the curve obtained by plotting dose against percent mortality and by using "Magellan data analysis software". CM alone plus MTS solution was used as a blank, and cell culture well without compound was used as a cellular control.

Where [5] appears, read: cTAR DNA 0.1 µM, 1 µM NC(11-55), 20 °C, pH 7.5, read-out: NC inhibition IC50.

Where two headings read alike, the source gives them in different places.

For `C[C@@H](NC(=O)c1nc(-c2nccc3[nH]ccc23)nc(O)c1O)C1CCCCC1` [Compound 85, (R)-N-(1-cyclohexylethyl)-5,6-dihydroxy-2-(1H pyrrolo[3,2-c]pyridin-4-yl)pyrimidine-4-carboxamide], the IC50 was 11.5 µM at NC(11-55) (setting [5]), 2670 nM in data set [1] and over 50000 nM in data set [3]. This molecule came in with an inhibition at 100 µM on NC(11-55) of over 25%. Besides, the EMSA screening results in data set [2] was “Positive (A compound showing >25% inhibition when tested at 100µM concentration is considered as "positive")”.
Turning to `C[C@@H](NC(=O)c1nc(-c2ccc(NC(=O)c3cnco3)cn2)nc(O)c1O)C1CCCCC1` [Compound 82, (R)-N-(6-(4-((1-cyclohexylethyl)carbamoyl)-5,6-dihydroxypyrimidin-2-yl)pyridin-3-yl)oxazole-5-carboxamide], in the data set with HeLa cells, the “Proliferation assay HELA TD50” value was 6.5308 µM. The IC50 at NC(11-55) (setting [5]) is 19.5 µM. The molecule also returned an inhibition at 100 µM against NC(11-55) of over 25%. Moreover, in data set [2], the EMSA screening results is listed as “Positive (A compound showing >25% inhibition when tested at 100µM concentration is considered as "positive")”.
As for `C[C@@H](NC(=O)c1nc(-c2ccc(N3CCN(C)CC3)cn2)nc(O)c1O)C1CCCCC1` [Compound 94, (R)-N-(1-cyclohexylethyl)-5,6-dihydroxy-2-(5-(4-methylpiperazin-1-yl)pyridin-2-yl)pyrimidine-4-carboxamide], the “Proliferation assay PBMC TD50” value in data set [4] is given as 740 nM. On NC(11-55), this molecule displayed a concentration for half-maximal inhibition (IC50) of 18 µM and an inhibition at 100 µM of over 25%. Further, the EMSA screening results in data set [2] is listed as “Negative”.
Regarding `O=C(c1nc(-c2ccccn2)nc(O)c1O)N1CCC(c2ccccc2)CC1` [Compound 9, (5,6-dihydroxy-2-(pyridin-2-yl)pyrimidin-4-yl)(4-phenylpiperidin-1-yl)methanone], the IC50 at NC(11-55) (setting [5]) was 128 µM; in data set [1] it was 2000 nM; in data set [3], 32900 nM. The molecule also gave an inhibition at 100 µM on NC(11-55) of over 25%. The EMSA screening results in data set [2] is listed as “Negative”.
